{"source": "patent US12233145B2", "about": "“Ultra-violet absorbing compounds” (CIIMAR—CENTRO DE INVESTIGACAO MARINHA E AMBIENTAL, priority 2018, dated 2025)", "key": {"[1]": {"assay": "UV-Vis absorption of scytoneman-like compounds", "type": "physicochemical", "from_the_text": "The compounds were isolated from cyanobacteria collected from a small saltern pond located just behind the primary dune in Mrizika, Morocco (GPS coordinates: 32.955807, −8.779638). […] To explore the chemodiversity of the mat, the biomass was freeze-dried (650 g, d.w.) and extracted using a dichloromethane/methanol mixture (2:1). The crude extract was then fractionated by vacuum liquid chromatography using a solvent gradient with increasing polarity from 100% hexanes to 100% ethyl acetate and then to 100% MeOH. […] The filtered solution was subfractionated through flash chromatography using a gradient of hexanes, ethyl acetate to methanol."}, "[2]": {"test_system": "cyanobacteria", "details": "cited from earlier work"}, "[3]": {"test_system": "SY-SH5Y (neuroblastoma cell line)", "assay": "Cytotoxicity tests using the MTT assay", "type": "cell-based", "details": "final concentration 10 μg mL^−1", "protocol": "1% DMSO (v/v) was used as negative control and 20% DMSO (v/v) as a positive control;\nThe pure compounds were also tested in cytotoxicity assays using the MTT assay."}, "[4]": {"test_system": "Staphylococcus aureus (ATCC 29213)", "assay": "Antimicrobial assay, disc diffusion method", "type": "cell-based", "details": "final concentration of 15 μg mL^−1; S. aureus ATCC 29213", "protocol": "Kanamycin and ampicillin (15 μg) were used as positive controls.\nThe pure compounds were also tested in antimicrobial assays using the disc diffusion method. […] Apart from its sunscreen function, the previously known scytonemins have been associated with anticancer and antioxidative activity, but no antimicrobial activity has ever been reported for any of the scytoneman family of compounds until now."}, "[5]": {"details": "Table 1, identification by LC-HRMS analysis"}}}
{"substance": "3′-hydroxy-3-methoxyscytonemin [595.1864]", "values": [{"measurement": "Main absorbance regions", "setting": "[1]; [5]", "result": "Green/blue"}, {"measurement": "Main absorbance regions", "setting": "[1]; Table 2, UV-Vis spectra", "result": "Green/blue"}]}
{"substance": "3,3′-dihydroxyscytonemin [585.2061]", "values": [{"measurement": "Main absorbance regions", "setting": "[1]; [5]", "result": "UVB"}, {"measurement": "Main absorbance regions", "setting": "[1]; Table 2, UV-Vis spectra", "result": "UVB"}, {"measurement": "Max wavelength", "setting": "[1]; maximum absorption wavelengths, UV-Vis spectra", "result": 293, "unit": "nm"}]}
{"substance": "scytonemin", "values": [{"measurement": "reduction of the UV-A radiation that penetrates the cells", "setting": "[2]", "result": "up to 90%"}]}
{"substance": "3′-hydroxyscytonemin", "values": [{"measurement": "Main absorbance regions", "setting": "[1]; [5]", "result": "UVA"}, {"measurement": "Main absorbance regions", "setting": "[1]; Table 2, UV-Vis spectra", "result": "UVA"}, {"measurement": "cell viability", "setting": "[3]; 24 h of exposure", "result": 37.8, "unit": "%"}, {"measurement": "cell viability", "setting": "[3]; 48 h of exposure", "result": 18.3, "unit": "%"}, {"measurement": "antimicrobial activity", "setting": "[4]", "result": "presented antimicrobial activity"}]}
